In brackets after ≈: the same amount, converted by molar mass. Where two headings read alike, the source gives them in different places. Where no end group is shown, it is not given here.
Tests used:
E. coli ML-35p [1] = test: Bacterial membrane permeabilization assay, inner membrane (ONPG); format: cell-based, Escherichia coli; settings: ONPG marker; for effect on cytoplasmic membrane permeability, substance alone (in words): ¼ MIC
Description: The method is based on the certain features of the specifically designed E. coli ML-35p bacterial strain. As its parental strain E. coli ML-35, this bacterium constitutively expresses cytoplasmic β-galactosidase, but is unable to transport β-galactoside containing substrates through the inner membrane in normal circumstances due to the lack of lactose permease. […] If the cytoplasmic membrane of the bacterium is damaged, the chromogenic marker o-nitrophenyl-β-D-galactoside (ONPG) penetrates into the cell and, when digested by bacterial β-galactosidase, produces a colored product o-nitrophenol. The accumulation of the latter can be spectrophotometrically detected at a wavelength of 420 nm.
Escherichia coli ML-35p was cultivated in the sterile 3% Trypticase soy broth (TSB) for 18 h at 37°C, then washed three times with 10 mM sodium phosphate buffer, pH 7.4 (10 min centrifugation at 600 g and 4°C), diluted up to the OD of 0.4 at 620 nm (1 × 10^8 CFU/ml concentration), and used immediately or kept on ice until the start of the test. […] Controls contained equivalent volume of acidified water instead of antimicrobial agent(s). The assay was started by adding the bacteria and was run at 37°C, with periodical shaking. Optical density (OD) measurement at 420 nm was performed every minute for 1–2 h using SpectraMax 250 Microplate Spectrophotometer (Molecular Devices, USA) and its SoftMax PRO software.
(A) Permeability of the inner membrane for a chromogenic marker o-nitrophenyl-β-D-galactoside (ONPG). ¼ of minimal inhibitory concentrations (MICs) of antimicrobial peptides (AMPs) and antibiotics were used when alone, and ¼ MIC of AMP + ¼ MIC of antibiotic when in combination. Curves illustrate ONPG degradation by the cytoplasmic β-galactosidase of bacteria, when the membranes are damaged by test substances. Curves slope and the time of their rising to the plateau correspond to the extent of this damage. […] Nitrocefin is a substrate for the periplasmic β-lactamase of the bacteria. RIF, rifampicin; PMB, polymyxin B; GEN, gentamicin; OFL, ofloxacin; OX, oxacillin.

[2] = system: Murine peritoneal macrophages; test: MTT-test
Procedure: Before the cells extraction, mice were sacrificed by cervical dislocation in accordance with the supplement to the Directive 86/609/EEC and its update Directive 2010/63/EU addressing the recommendations for euthanasia of experimental animals (Close et al., [1996]). To obtain peritoneal macrophages, healthy mice were used. The abdominal cavity of each animal was washed with 3 ml of sterile PBS using a Pasteur pipette. The culture of EAC cells was kindly provided by Dr. E.P. Kiseleva (Immunology Department of the Institute of Experimental Medicine, Saint Petersburg, Russia). On the tenth day after the intraperitoneal tumor inoculation, 0.5–1.5 ml of ascitic fluid containing EAC cells was obtained from the abdominal cavity of the animals. Murine cells (normal or tumor) were washed twice with 10 ml of sterile PBS and resuspended in RPMI-1640 medium as described above for human neutrophils and PBMC.
We calculated Fractional Effective Concentration Index (FECI), which could be seen as a particular case of the interaction index (I) proposed by Berenbaum ([1977]) or of the similar combination index (CI) proposed by Chou and Talalay ([1983]), according to the equation below: […]
Here, [MEC A] and [MEC B] are the minimum effective concentrations (MEC) of substances A and B, when they are used alone. […] [A] and [B] are respective concentrations of substances A and B in their combination, where the same statistically significant difference is detected. A non-parametric Mann-Whitney U-test (p < 0.05 or p < 0.01) was used for the mentioned statistical comparison.
We have chosen the same intervals as that of FICI to determine synergy, additivity, independent action, and antagonism based on the minimal FECI values. However, in case of cytotoxic or hemolytic effect we were interested mainly in testing the possibility of additive or synergistic interaction itself, and not in assessing the exact magnitude of such interaction. Thus, in contrast to the “checkerboard titration” method used for combined antimicrobial activity investigation, studying the combined cytotoxic effect, we considered only two combinations of concentrations for the substances A and B in the mixture: • (½ MEC A + ½ MEC B), which, if found effective, provides the FECI value of 1 (the threshold value for additivity); • (¼ MEC A + ¼ MEC B), which, if found effective, provides the FECI value of 0.5 (the threshold value for synergetic interaction).
When action on tumor cells was tested in combination with antitumor antibiotic the lower concentrations up to ( 1/16 MEC A + 1/16 MEC B) as in checkerboard titration were additionally examined to assess the magnitude of synergistic effect more precisely. The final conclusion was made based on the three independent experiments.
Standard MTT-test (Mosmann, [1983]) was used for the examination of the cytotoxic activity of antimicrobial compounds and their combinations toward varied eukaryotic cells. Briefly, cell suspensions in RPMI-1640 prepared as described in Eukaryotic Cells were dispensed into the 96-well microplates (2 × 10^5 cells/well). Then, serial dilutions of AMPs, or other antibiotic compounds, or their mixtures in RPMI-1640 were added. In positive controls (100% cell survival) the according volume of RPMI-1640 without test substances was added instead. The final volume in each well was 100 μl. Negative controls (0% cell survival) were made with 100 μl of the sterile RPMI-1640. The plates were incubated at 37°C under 5% CO2 for 24 h. Four hours before the end of incubation, 10 μl of metabolic marker MTT−3-(4,5-dimethylthiazol-2-yl)-2,5-diphenyltetrazolium bromide (5 mg/ml, diluted in PBS) was added to each well. Incubation was stopped by adding 90 μl of isopropanol containing 0.04 M HCl. Content of the wells was thoroughly mixed, so that the formazan crystals, formed in case of the reduction of MTT in presence of actively metabolizing cells, were fully dissolved.

E. coli ML-35p [3] = test: microbe, parasite or virus in culture; format: cell-based, Escherichia coli; settings: median of 3–6 experiments, value in square brackets = twice the maximal tested concentration, read-out: MIC
Procedure: Prior to the “checkerboard” synergy test the minimal inhibitory concentrations (MIC) of individual substances were determined using broth microdilution assay. Testing was performed in 60-well polystyrene Terasaki microplates with V-shaped bottom generally according to the guidelines of the European Committee for Antimicrobial Susceptibility Testing with subtle modifications designed for AMP testing (Tossi et al., [1997]; Wiegand et al., [2008]). Cultivation of bacteria was carried out in 2.1% Müller-Hinton broth at 37°C with shaking. Two-fold serial dilutions of peptides, antibiotics and other antimicrobials were made with 10 mM sodium phosphate buffer, pH 7.4, containing 0.1% of BSA. The plates were preliminary incubated with 0.1% BSA for 1 h at 37°C to reduce a non-specific binding of peptides to the plates. After that BSA was removed, and serial dilutions were added into the plate wells in triplicates followed by the same volume of the suspension of bacterial cells in logarithmic phase of growth in concentration of 1 × 10^6 CFU/ml. After the 18 h overnight incubation at 37°C, the MIC value for each compound was determined as its lowest concentration completely inhibiting the visible growth of bacteria. The final results were calculated as median values based on 3–6 independent experiments.

[4] = Murine peritoneal macrophages, normal cells, MTT, 24 h

Compound	effect on cytoplasmic membrane permeability, substance alone (in words) (E. coli ML-35p [1])	MEC of cytotoxic action ([2]; mouse, 24 h)	MIC (E. coli ML-35p [3]; Escherichia coli, ML35P) [µM]	further results
CNC(C)C1CCC(N)C(OC2C(N)CC(N)C(OC3OCC(C)(O)C(NC)C3O)C2O)O1 (stereo not drawn) [Gentamicin]	no substantial increase	>50 [100] μM	0.625 (≈ 0.299 µg/mL)	
CO[C@H]1/C=C/O[C@@]2(C)Oc3c(C)c(O)c4c(O)c(c(/C=N/N5CCN(C)CC5)c(O)c4c3C2=O)NC(=O)/C(C)=C\C=C\[C@H](C)[C@H](O)[C@@H](C)[C@@H](O)[C@@H](C)[C@H](OC(C)=O)[C@@H]1C [Rifampicin]		>20 [40] μM	10 (≈ 8.23 µg/mL)	
Cc1onc(-c2ccccc2)c1C(=O)N[C@@H]1C(=O)N2[C@@H]1SC(C)(C)[C@@H]2C(=O)O [Oxacillin]		>50 [100] μM	> 250	
CC1COc2c(N3CCN(C)CC3)c(F)cc3c(=O)c(C(=O)O)cn1c23 (stereo not drawn) [Ofloxacin]		>50 [100] μM	0.125 (≈ 0.0452 µg/mL)	
CC[C@H](C)[C@H](NC(=O)[C@H](CCCCN)NC(=O)[C@H](CCC(=O)O)NC(=O)[C@H](CCCCN)NC(=O)[C@H](CO)NC(=O)[C@H](CCCCN)NC(=O)[C@H](CCCNC(=N)N)NC(=O)[C@H](Cc1ccccc1)NC(=O)[C@H](Cc1ccccc1)NC(=O)[C@H](CC(=O)O)NC(=O)CNC(=O)[C@H](CC(C)C)NC(=O)[C@@H](N)CC(C)C)C(=O)NCC(=O)N[C@@H](CCCCN)C(=O)N[C@@H](CCC(=O)O)C(=O)N[C@@H](Cc1ccccc1)C(=O)N[C@@H](CCCCN)C(=O)N[C@@H](CCCNC(=N)N)C(=O)N[C@H](C(=O)N[C@H](C(=O)N[C@@H](CCC(N)=O)C(=O)N[C@@H](CCCNC(=N)N)C(=O)N[C@H](C(=O)N[C@@H](CCCCN)C(=O)N[C@@H](CC(=O)O)C(=O)N[C@@H](Cc1ccccc1)C(=O)N[C@@H](CC(C)C)C(=O)N[C@@H](CCCNC(=N)N)C(=O)N[C@@H](CC(N)=O)C(=O)N[C@@H](CC(C)C)C(=O)N[C@H](C(=O)N1CCC[C@H]1C(=O)N[C@@H](CCCNC(=N)N)C(=O)N[C@H](C(=O)N[C@@H](CCC(=O)O)C(=O)N[C@@H](CO)C(=O)O)[C@@H](C)O)C(C)C)[C@@H](C)CC)C(C)C)[C@@H](C)CC [LL-37]	quite slow enhance of the membrane permeability			effect on cytoplasmic membrane permeability in presence of gentamicin vs peptide/protein alone (in words) (E. coli ML-35p [1]; ¼ MIC + ¼ MIC gentamicin): developing rather quickly; MEC of cytotoxic action [2, 4]: >20 [40] μM
Lysozyme: egg white lysozyme, antimicrobial protein, from BioChemica				MEC of cytotoxic action [2]: >50 [100] μM
Polymyxin B				MEC of cytotoxic action [2, 4]: 50 µM; MIC (E. coli ML-35p [3]): 0.4 µM
RFRLPFRRPPIRIHPPPFYPPFRRFL-NH2 (C-terminus assumed) [ChBac3.4]	no substantial effect			development of membrane-damaging effect in combination with rifampicin (in words) (E. coli ML-35p [1]; ¼ MIC + ¼ MIC rifampicin): slight acceleration; MEC of cytotoxic action [2]: >20 [40] μM

Source: paper PMC6503114, “Application of Antimicrobial Peptides of the Innate Immune System in Combination With Conventional Antibiotics—A Novel Way to Combat Antibiotic Resistance?” (Frontiers in Cellular and Infection Microbiology, 2019)
